In publication PMC6770577, “TRPM6 N-Terminal CaM- and S100A1-Binding Domains” (International Journal of Molecular Sciences, 2019):

Molecular target: T1, S100A1 (Homo sapiens, UniProt P23297)
T1 construct: made in house; host or cells: E. coli BL21
T1 sequence (P23297 1-94): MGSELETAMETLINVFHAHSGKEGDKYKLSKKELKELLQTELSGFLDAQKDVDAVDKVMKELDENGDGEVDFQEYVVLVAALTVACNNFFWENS
Test: Steady-state fluorescence anisotropy binding assay, FITC-labelled TRPM6np peptides titrated with S100A1
Conditions: 1 μM N-terminally FITC-labelled peptide titrated with 100 μM S100A1, 50 mM Tris-HCl pH 7.5, 150 mM NaCl, 2 mM CaCl2, room temperature, at least five measurements, read-out: KD, equilibrium dissociation constant of the TRPM6np/S100A1 complex
Procedure: Steady-state fluorescence anisotropy experiments were performed at room temperature on a photon counting spectrometer PC1 (ISS Inc., Champaign, Illinois, USA). TRPM6npWT and its mutants were dissolved in a buffer containing 50 mM Tris-HCl (pH 7.5), 150 mM NaCl, and 2 mM CaCl2 for a final concentration of 1 μM. The samples were titrated in a 2-mm path cuvette with increasing aliquots of 100 μM CaM or S100A1. Fluorescence was excited at 495 nm; the intensity of emission in parallel (III) and perpendicular (I﬩) orientations to the direction of the polarised excitation was obtained at 520 nm by switching the emission polariser. The steady-state fluorescence anisotropy value (r) was calculated from the equation r = (III − I﬩) / (III + 2I﬩). […] Q represents the quantum yield ratio of the bound to the free peptide, calculated from fluorescence lifetimes (τ) according to equation Q = τbound/τfree. […]
Lifetimes were evaluated at room temperature in a drop placed on a coverslip and inserted into an inverted confocal microscope IX83 (Olympus, Tokyo, Japan) equipped with time-correlated single photon counting electronics and cooled GaAsP hybrid detectors (all PicoQuant, Berlin, Germany). […] fluorescence was excited at 485 nm by an LDH-485 picosecond laser (PicoQuant, Berlin, Germany). […]

Row | SMILES | Kd [µM]
1 | CC[C@H](C)[C@H](NC(=O)[C@H](CC(C)C)NC(=S)Nc1ccc2c(c1)C(=O)OC21c2ccc(O)cc2Oc2cc(O)ccc21)C(=O)NCC(=O)N[C@@H](CCCNC(=N)N)C(=O)N[C@@H](C)C(=O)N[C@@H](Cc1ccc(O)cc1)C(=O)N[C@@H](CCCNC(=N)N)C(=O)N[C@@H](CO)C(=O)N[C@@H](CC(N)=O)C(=O)N[C@@H](Cc1ccc(O)cc1)C(=O)N[C@H](C(=O)N[C@@H](C)C(=O)N[C@@H](C)C(=O)N[C@@H](Cc1c[nH]cn1)C(=O)N[C@@H](Cc1ccccc1)C(=O)N[C@@H](CCCNC(=N)N)C(=O)O)[C@@H](C)O [K532A/R531A] | 50.2
2 | CC[C@H](C)[C@H](NC(=O)[C@H](CC(C)C)NC(=S)Nc1ccc2c(c1)C(=O)OC21c2ccc(O)cc2Oc2cc(O)ccc21)C(=O)NCC(=O)N[C@@H](CCCNC(=N)N)C(=O)N[C@@H](C)C(=O)N[C@@H](Cc1ccc(O)cc1)C(=O)N[C@@H](CCCNC(=N)N)C(=O)N[C@@H](CO)C(=O)N[C@@H](CC(N)=O)C(=O)N[C@@H](Cc1ccc(O)cc1)C(=O)N[C@H](C(=O)N[C@@H](CCCNC(=N)N)C(=O)N[C@@H](C)C(=O)N[C@@H](Cc1c[nH]cn1)C(=O)N[C@@H](Cc1ccccc1)C(=O)N[C@@H](CCCNC(=N)N)C(=O)O)[C@@H](C)O [K532A] | 24.8
